Read-outs that look alike come from different tables or passages of the source.
Legend:
Assay in all cases: MIC, broth microdilution (CLSI), substance alone or ATB combined with compound at 4 or 8 μg/mL
SAU 29213 = type: cell-based, S. aureus; conditions: SAU 29213
Method in brief: (§1)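 Broth microdilution; ca-MHB; 5·10^5 CFU/mL; 35° C, 16-20 h; compound alone or fixed 4/8 μg/mL with antibiotic series; endpoint = no visible growth.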

KPN UFR42 = type: cell-based, K. pneumoniae; conditions: for MIC: Klebsiella pneumoniae
Method in brief: as §1

KPN 6299 = type: cell-based, K. pneumoniae; conditions: for MIC: Klebsiella pneumoniae
Method in brief: as §1

KPN BAA-1898 = type: cell-based, K. pneumoniae; conditions: KPN BAA-1898; for MIC: Klebsiella pneumoniae, BAA1898
Method in brief: as §1

ECO 190317 = type: cell-based, E. coli; conditions: ECO 190317; for MIC: Escherichia coli
Method in brief: as §1

ECO UFR39 = type: cell-based, E. coli; conditions: for MIC: Escherichia coli
Method in brief: as §1

[1] = antibiotic alone, read-out: MIC ATB alone

CO/N=C(\C(=O)N[C@@H]1C(=O)N2C(C(=O)O)=C(COC(N)=O)CS[C@H]12)c1ccco1 [FUR, Cefuroxime, reference compound]
>32 µg/mL: MIC ATB combined with Example 1 @8 μg/ml (KPN UFR42; KPN UFR42, with Example 1 @8 μg/ml) | MIC ATB combined with Example 1 @8 μg/ml (KPN UFR42; KPN UFR42, with Example 1 at 8 μg/ml) | MIC ATB combined with Example 7 @8 μgml (KPN UFR42; KPN UFR42, with Example 7 at 8 μg/ml) | MIC ATB combined with Example 9 @4 μg/ml (KPN UFR42; KPN UFR42, with Example 9 @4 μg/ml) | MIC ATB combined with Example 9 @4 μg/ml (KPN UFR42; KPN UFR42, with Example 9 at 4 μg/ml) | MIC ATB combined with Example 13 @8 μg/ml (KPN UFR42; KPN UFR42, with Example 13 at 8 μg/ml) | MIC ATB combined with Example 1 @8 μg/ml (ECO UFR39; ECO UFR39, with Example 1 @8 μg/ml) | MIC ATB combined with Example 1 @8 μg/ml (ECO UFR39; ECO UFR39, with Example 1 at 8 μg/ml)
> 32 µg/mL: MIC (KPN UFR42; KPN UFR42, antibiotic alone, read-out: MIC ATB alone) | MIC (ECO UFR39; ECO UFR39, antibiotic alone, read-out: MIC ATB alone)
2 µg/mL: MIC (SAU 29213; Staphylococcus aureus, antibiotic alone, read-out: MIC ATB alone) | MIC ATB combined with Example 7 @8 μgml (KPN 6299; with Example 7 at 8 μg/ml) | MIC ATB combined with Example 13 @8 μg/ml (KPN 6299; with Example 13 at 8 μg/ml) | MIC ATB combined with Example 1 @8 μg/ml (KPN BAA-1898; with Example 1 @8 μg/ml) | MIC ATB combined with Example 1 @8 μg/ml (KPN BAA-1898; with Example 1 at 8 μg/ml)
<0.031 µg/mL: MIC ATB combined with Example 14 @8 μg/ml (SAU 29213; with Example 14 at 8 μg/ml) | MIC ATB combined with Example 15 @4 μgml (SAU 29213; with Example 15 at 4 μg/ml) | MIC ATB combined with Example 16 @4 μg/ml (SAU 29213; with Example 16 at 4 μg/ml) | MIC ATB combined with Example 11 @8 μg/ml (KPN UFR42; KPN UFR42, with Example 11 at 8 μg/ml) | MIC ATB combined with Example 12 @8 μg/ml (KPN UFR42; KPN UFR42, with Example 12 at 8 μg/ml) | MIC ATB combined with Example 14 @8 μg/ml (KPN UFR42; KPN UFR42, with Example 14 at 8 μg/ml) | MIC ATB combined with Example 15 @4 μgml (KPN UFR42; KPN UFR42, with Example 15 at 4 μg/ml) | MIC ATB combined with Example 16 @4 μg/ml (KPN UFR42; KPN UFR42, with Example 16 at 4 μg/ml) | MIC ATB combined with Example 9 @4 μg/ml (KPN 6299; with Example 9 @4 μg/ml) | MIC ATB combined with Example 9 @4 μg/ml (KPN 6299; with Example 9 at 4 μg/ml) | MIC ATB combined with Example 11 @8 μg/ml (KPN 6299; with Example 11 at 8 μg/ml) | MIC ATB combined with Example 12 @8 μg/ml (KPN 6299; with Example 12 at 8 μg/ml) | MIC ATB combined with Example 14 @8 μg/ml (KPN 6299; with Example 14 at 8 μg/ml) | MIC ATB combined with Example 15 @4 μgml (KPN 6299; with Example 15 at 4 μg/ml) | MIC ATB combined with Example 16 @4 μg/ml (KPN 6299; with Example 16 at 4 μg/ml) | MIC ATB combined with Example 9 @4 μg/ml (KPN BAA-1898; with Example 9 @4 μg/ml) | MIC ATB combined with Example 9 @4 μg/ml (KPN BAA-1898; with Example 9 at 4 μg/ml) | MIC ATB combined with Example 11 @8 μg/ml (KPN BAA-1898; with Example 11 at 8 μg/ml) | MIC ATB combined with Example 12 @8 μg/ml (KPN BAA-1898; with Example 12 at 8 μg/ml) | MIC ATB combined with Example 14 @8 μg/ml (KPN BAA-1898; with Example 14 at 8 μg/ml) | MIC ATB combined with Example 15 @4 μgml (KPN BAA-1898; with Example 15 at 4 μg/ml) | MIC ATB combined with Example 16 @4 μg/ml (KPN BAA-1898; with Example 16 at 4 μg/ml) | MIC ATB combined with Example 1 @8 μg/ml (ECO 190317; with Example 1 @8 μg/ml) | MIC ATB combined with Example 1 @8 μg/ml (ECO 190317; with Example 1 at 8 μg/ml) | MIC ATB combined with Example 7 @8 μgml (ECO 190317; with Example 7 at 8 μg/ml) | MIC ATB combined with Example 9 @4 μg/ml (ECO 190317; with Example 9 @4 μg/ml) | MIC ATB combined with Example 9 @4 μg/ml (ECO 190317; with Example 9 at 4 μg/ml) | MIC ATB combined with Example 11 @8 μg/ml (ECO 190317; with Example 11 at 8 μg/ml) | MIC ATB combined with Example 12 @8 μg/ml (ECO 190317; with Example 12 at 8 μg/ml) | MIC ATB combined with Example 13 @8 μg/ml (ECO 190317; with Example 13 at 8 μg/ml) | MIC ATB combined with Example 14 @8 μg/ml (ECO 190317; with Example 14 at 8 μg/ml) | MIC ATB combined with Example 15 @4 μgml (ECO 190317; with Example 15 at 4 μg/ml) | MIC ATB combined with Example 16 @4 μg/ml (ECO 190317; with Example 16 at 4 μg/ml) | MIC ATB combined with Example 7 @8 μgml (ECO UFR39; ECO UFR39, with Example 7 at 8 μg/ml) | MIC ATB combined with Example 9 @4 μg/ml (ECO UFR39; ECO UFR39, with Example 9 @4 μg/ml) | MIC ATB combined with Example 9 @4 μg/ml (ECO UFR39; ECO UFR39, with Example 9 at 4 μg/ml) | MIC ATB combined with Example 11 @8 μg/ml (ECO UFR39; ECO UFR39, with Example 11 at 8 μg/ml) | MIC ATB combined with Example 12 @8 μg/ml (ECO UFR39; ECO UFR39, with Example 12 at 8 μg/ml) | MIC ATB combined with Example 13 @8 μg/ml (ECO UFR39; ECO UFR39, with Example 13 at 8 μg/ml) | MIC ATB combined with Example 14 @8 μg/ml (ECO UFR39; ECO UFR39, with Example 14 at 8 μg/ml) | MIC ATB combined with Example 15 @4 μgml (ECO UFR39; ECO UFR39, with Example 15 at 4 μg/ml) | MIC ATB combined with Example 16 @4 μg/ml (ECO UFR39; ECO UFR39, with Example 16 at 4 μg/ml)
8 µg/mL: MIC ATB combined with Example 1 @8 μg/ml (KPN 6299; with Example 1 @8 μg/ml) | MIC ATB combined with Example 1 @8 μg/ml (KPN 6299; with Example 1 at 8 μg/ml) | MIC ATB combined with Example 7 @8 μgml (KPN BAA-1898; with Example 7 at 8 μg/ml) | MIC ATB combined with Example 13 @8 μg/ml (KPN BAA-1898; with Example 13 at 8 μg/ml)
> 256 µg/mL: MIC (KPN UFR42) | MIC (ECO UFR39)
> 512 µg/mL: MIC (KPN 6299; [1]) | MIC (KPN 6299; substance alone, read-out: MIC) | MIC (KPN BAA-1898; [1]) | MIC (KPN BAA-1898; substance alone, read-out: MIC) | MIC (ECO 190317; [1]) | MIC (ECO 190317; substance alone, read-out: MIC)

From patent US20200024278A1, “COMPOSITION COMPRISING ANTIBIOTIC COMPOUND AND AN HETEROCYCLIC COMPOUND AND THEIR USE IN PREVENTING OR TREATING BACTERIAL INFECTIONS” (MUTABILIS, priority 2016, published 2020)
